Measurements published in patent publication US20100137313A1 (ASTRAZENECA AB, priority 2008, published 2010).

Molecular target: S. pneumoniae Topoisomerase IV ATPase (ParE) (Streptococcus pneumoniae serotype 4, UniProt Q59961)
Test: S. pneumoniae Topoisomerase IV ATPase inhibition
Format: biochemical
Conditions: values marked * are an average of two or more data points, read-out: % Inh (13 μM) of S. pneumoniae Topoisomerase IV ATPase
Outline: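 Malachite green/ammonium molybdate phosphate detection, A650. 1.25 nM ParE, 160 μM ATP, sheared salmon sperm DNA 5 μg/ml, 20 mM Tris pH 8.0, 8.0 mM MgCl2. Controls: 2% DMSO = 0%, 20 μM EDTA = 100% inhibition; IC50 over 10 concentrations.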

Chain of S. pneumoniae Topoisomerase IV ATPase (ParE) (Q59961 whole entry): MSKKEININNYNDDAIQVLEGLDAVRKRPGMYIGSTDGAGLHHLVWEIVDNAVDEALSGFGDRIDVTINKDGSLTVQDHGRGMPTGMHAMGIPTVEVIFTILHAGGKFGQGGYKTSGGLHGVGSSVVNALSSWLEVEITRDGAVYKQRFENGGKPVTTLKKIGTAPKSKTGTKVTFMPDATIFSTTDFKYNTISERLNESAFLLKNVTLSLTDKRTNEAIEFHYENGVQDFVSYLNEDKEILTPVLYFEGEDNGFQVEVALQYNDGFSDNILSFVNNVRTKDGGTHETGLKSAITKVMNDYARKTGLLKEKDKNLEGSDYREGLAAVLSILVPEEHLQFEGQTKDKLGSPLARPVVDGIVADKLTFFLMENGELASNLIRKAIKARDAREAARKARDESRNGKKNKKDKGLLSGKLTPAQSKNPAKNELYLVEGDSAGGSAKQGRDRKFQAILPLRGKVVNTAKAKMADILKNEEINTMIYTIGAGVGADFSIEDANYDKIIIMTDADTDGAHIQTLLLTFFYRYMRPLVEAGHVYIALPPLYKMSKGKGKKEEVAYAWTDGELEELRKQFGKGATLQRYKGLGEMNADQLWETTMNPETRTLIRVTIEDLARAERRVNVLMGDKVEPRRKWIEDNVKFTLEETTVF

Row | Structure (SMILES) | inhibition at 13 µM [%]
1 | COc1ncc(-c2cnc(Nc3ccc(F)c(Cl)c3)nc2-n2ccc(C(F)(F)F)n2)cc1C(=O)NS(C)(=O)=O [Example 1024, 5-(2-(3-Chloro-4-fluorophenylamino)-4-(3-(trifluoromethyl)-1H-pyrazol-1-yl)pyrimidin-5-yl)-2-methoxy-N-(methylsulfonyl)nicotinamide] | 100
2 | COc1ncc(-c2cnc(Nc3ccc(F)c(Cl)c3)nc2-n2nc(C(F)(F)F)cc2C)cc1C(=O)NS(C)(=O)=O [Example 1025, 5-(2-(3-Chloro-4-fluorophenylamino)-4-(5-methyl-3-(trifluoromethyl)-1H-pyrazol-1-yl)pyrimidin-5-yl)-2-methoxy-N-(methylsulfonyl)nicotinamide] | 98
3 | COc1cc(Nc2ncc(-c3cc(C(=O)NS(C)(=O)=O)c(=O)n(C)c3)c(-n3nc(C(F)(F)F)cc3C)n2)cc(OC)c1 [Example 1026] | 98
4 | COc1ncc(-c2cnc(Nc3ccc(F)c(Cl)c3)nc2-n2ccc(C(F)(F)F)n2)cc1CO [Example 1027, (5-(2-(3-chloro-4-fluorophenylamino)-4-(3-(trifluoromethyl)-1H-pyrazol-1-yl)pryimidin-5-yl)-2-methoxypyridin-3yl)methanol] | 94
5 | COc1ncc(-c2cnc(Nc3ccc(F)c(Cl)c3)nc2-n2ccc(C(F)(F)F)n2)cc1/C=C/C(=O)O [Example 1030, (E)-3-(5-(2-(3-chloro-4-fluorophenylamino)-4-(3-(trifluoromethyl)-1H-pyrazol-1-yl)pyrimidin-5-yl)-2-methoxypyridin-3-yl)acrylic acid] | 100
6 | CCN(CC)S(=O)(=O)c1cncc(-c2cnc(Nc3ccc(F)c(Cl)c3)nc2-n2ccc(C(F)(F)F)n2)c1 [Example 1033, 5-(2-(3-Chloro-4-fluorophenylamino)-4-(3-(trifluoromethyl)-1H-pyrazol-1-yl)pyrimidin-5-yl)-N,N-diethylpyridine-3-sulfonamide] | 20
7 | CCN(CC)S(=O)(=O)c1cncc(-c2cnc(Nc3ccc(F)c(Cl)c3)nc2-n2nc(C(F)(F)F)cc2C)c1 [Example 1034] | 96
8 | O=S(=O)(c1cncc(-c2cnc(Nc3ccc(F)c(Cl)c3)nc2-n2ccc(C(F)(F)F)n2)c1)N1CCOCC1 [Example 1035] | 51
9 | Cc1cc(C(F)(F)F)nn1-c1nc(Nc2ccc(F)c(Cl)c2)ncc1-c1cncc(S(=O)(=O)N2CCOCC2)c1 [Example 1036] | 100
10 | COC(=O)CC(=O)c1cncc(-c2cnc(Nc3ccc(F)c(Cl)c3)nc2N2CCOCC2)c1 [Example 1039, Methyl 3-(5-(2-(3-chloro-4-fluorophenylamino)-4-morpholinopyrimidin-5-yl)pyridin-3-yl)-3-oxopropanoate] | 90
11 | COCCCNc1nc(Nc2ccc(F)c(Cl)c2)ncc1-c1cncc(C(=O)CC(=O)OC)c1 [Example 1040, Methyl 3-(5-(2-(3-chloro-4-fluorophenylamino)-4-(3-methoxypropylamino)pyrimidin-5-yl)pyridin-3-yl)-3-oxopropanoate] | 86
12 | COC(=O)CC(=O)c1cncc(-c2cnc(Nc3ccc(F)c(Cl)c3)nc2-n2nc(C(F)(F)F)cc2C)c1 [Example 1041, Methyl 3-(5-(2-(3-chloro-4-fluorophenylamino)-4-(5-methyl-3-(trifluoromethyl)-1H-pyrazol-1-yl)pyrimidin-5-yl)pyridin-3-yl)-3-oxopropanoate] | 100
13 | Cc1cc(C(F)(F)F)nn1-c1nc(Nc2ccc(F)c(Cl)c2)ncc1-c1ccc2c(c1)C(=O)NC2=O [Example 1042, 5-(2-(3-Chloro-4-fluorophenylamino)-4-(5-methyl-3-(trifluoromethyl)-1H-pyrazol-1-yl)pyrimidin-5-yl)isoindoline-1,3-dione] | 49
14 | Cn1cc(-c2cnc(Nc3ccc(F)c(Cl)c3)nc2-n2ccc(C(F)(F)F)n2)cc(C(=O)NS(C)(=O)=O)c1=O [Example 1048, 5-(2-(3-Chloro-4-fluorophenylamino)-4-(3-(trifluoromethyl)-1H-pyrazol-1-yl)pyrimidin-5-yl)-1-methyl-N-(methylsulfonyl)-2-oxo-1,2-dihydropyridine-3-carboxamide] | 100
15 | Cc1cc(C(F)(F)F)nn1-c1nc(Nc2ccc(F)c(Cl)c2)ncc1-c1cc(C(=O)NS(C)(=O)=O)c(=O)n(C)c1 [Example 1049, 5-(2-(3-Chloro-4-fluorophenylamino)-4-(5-methyl-3-(trifluoromethyl)-1H-pyrazol-1-yl)pyrimidin-5-yl)-1-methyl-N-(methylsulfonyl)-2-oxo-1,2-dihydropyridine-3-carboxamide] | 99
16 | COCCCNc1nc(Nc2ccc(F)c(Cl)c2)ncc1-c1ccc2cc(C(=O)OC)[nH]c2c1 [Example 1051, methyl 6-(2-(3-chloro-4-fluorophenylamino)-4-(3-methoxypropylamino)pyrimidin-5-yl)-1H-indole-2-carboxylate] | 0

Row | Structure (SMILES) | inhibition at 13 µM [%]
17 | CCOC(=O)c1cc2cc(-c3cnc(Nc4ccc(F)c(Cl)c4)nc3NCCCOC)ccc2[nH]1 [Example 1052, Ethyl 5-(2-(3-chloro-4-fluorophenylamino)-4-(3-methoxyproylamino)pyrimidin-5-yl)-1H-indole-2-carboxylate] | 0
18 | COC(=O)c1cc2ccc(-c3cnc(Nc4ccc(F)c(Cl)c4)nc3N3CCOCC3)cc2[nH]1 [Example 1053, Methyl 6-(2-(3-chloro-4-fluorophenylamino)-4-morpholinopyrimidin-5-yl)-1H-indole-2-carboxylate] | 0
19 | CCOC(=O)c1cc2cc(-c3cnc(Nc4ccc(F)c(Cl)c4)nc3N3CCOCC3)ccc2[nH]1 [Example 1054, Ethyl 5-(2-(3-chloro-4-fluorophenylamino)-4-morpholinopyrimidin-5-yl)-1H-indole-2-carboxylate] | 0
20 | CCC1COC(C)CN1c1nc(Nc2ccc(F)c(Cl)c2)ncc1-c1cccc(/C=C/C(=O)O)c1 (centres unmarked) [Example 1056, (E)-3-(3-(2-(3-chloro-4-fluorophenylamino)-4-(5-ethyl-2-methylmorpholino)pyrimidin-5-yl)phenyl)acrylic acid] | 85
21 | COCCn1cc(C(=O)O)c(=O)c2cc(-c3cnc(Nc4ccc(F)c(Cl)c4)nc3NCCCN(C)C)ccc21 [Example 1057, 6-(2-(3-Chloro-4-fluorophenylamino)-4-(3-(dimethylamino)propylamino)pyrimidin-5-yl)-1-(2-methoxyethyl)-4-oxo-1,4-dihydroquinoline-3-carboxylic acid] | 83
22 | CCC1COC(C)CN1c1nc(Nc2ccc(F)c(Cl)c2)ncc1-c1cncc(C(=O)O)c1 (centres unmarked) [Example 1058, 5-(2-(3-Chloro-4-fluorophenylamino)-4-(5-ethyl-2-methylmorpholino)pyrimidin-5-yl)nicotinic acid] | 87
23 | O=C(O)/C=C/c1cccc(-c2cnc(Nc3ccc(F)c(Cl)c3)nc2N2CCOC(CO)C2)c1 (centres unmarked) [Example 1059] | 85
24 | O=C(O)c1cncc(-c2cnc(Nc3ccc(F)c(Cl)c3)nc2N2CCOC(CO)C2)c1 (centres unmarked) [Example 1060] | 87
25 | COCCCNc1nc(Nc2ccc(F)c(Cl)c2)ncc1-c1ccc2cc(C(=O)O)[nH]c2c1 [Example 1061, 6-(2-(3-chloro-4-fluorophenylamino)-4-(3-methoxypropylamino)pyrimidin-5-yl)-1H-indole-2-carboxylic acid] | 92
26 | COCCCNc1nc(Nc2ccc(F)c(Cl)c2)ncc1-c1ccc2[nH]c(C(=O)O)cc2c1 [Example 1062, 5-(2-(3-chloro-4-fluorophenylamino)-4-(3-methoxypropylamino)pyrimidin-5-yl)-1H-indole-2-carboxylic acid] | 91
27 | O=C(O)c1cc2ccc(-c3cnc(Nc4ccc(F)c(Cl)c4)nc3N3CCOCC3)cc2[nH]1 [Example 1063, 6-(2-(3-Chloro-4-fluorophenylamino)-4-morpholinopyrimidin-5-yl)-1H-indole-2-carboxylic acid] | 94
28 | O=C(O)c1cc2cc(-c3cnc(Nc4ccc(F)c(Cl)c4)nc3N3CCOCC3)ccc2[nH]1 [Example 1064, 5-(2-(3-Chloro-4-fluorophenylamino)-4-morpholinopyrimidin-5-yl)-1H-indole-2-carboxylic acid] | 100
29 | COc1ncc(-c2cnc(Nc3ccc(F)c(Cl)c3)nc2-n2ccc(C(F)(F)F)n2)cc1C(=O)O [Example 1066, 5-(2-(3-chloro-4-fluorophenylamino)-4-(3-(trifluoromethyl)-1H-pyrazol-1-yl)pyrimidin-5-yl)-2-methoxynicotinic acid] | 100
30 | COc1ncc(-c2cnc(Nc3ccc(F)c(Cl)c3)nc2-n2nc(C(F)(F)F)cc2C)cc1C(=O)O [Example 1067, 5-(2-(3-chloro-4-fluorophenylamino)-4-(5-methyl-3-(trifluoromethyl)-1H-pyrazol-1-yl)pyrimidin-5-yl)-2-methoxynicotinic acid] | 98
31 | O=C(O)c1cc(-c2cnc(Nc3ccc(F)c(Cl)c3)nc2-n2ccc(C(F)(F)F)n2)ccn1 [Example 1068, 4-(2-(3-Chloro-4-fluorophenylamino)-4-(3-(trifluoromethyl)-1H-pyrazol-1-yl)pyrimidin-5-yl)picolinic acid] | 100
32 | O=C(O)c1cn(CCN2CCOCC2)c2ccc(-c3cnc(Nc4ccc(F)c(Cl)c4)nc3-n3ccc(C(F)(F)F)n3)cc2c1=O [Example 1069, 6-(2-(3-Chloro-4-fluorophenylamino)-4-(3-(trifluoromethyl)-1H-pyrazol-1-yl)pyrimidin-5-yl)-1-(2-morpholinoethyl)-4-oxo-1,4-dihydroquinoline-3-carboxylic acid] | 100
